Activity calls are given as the source filed them.
Columns and labels:
HeLa = assay: HeLa cell cytotoxicity, dose response, cytotoxicity control, ATP luminescence, cherry-pick samples (AID 687004); type: functional, cell-based; details: Homo sapiens
Coagulation factor XII = molecular target: T1, Coagulation factor XII (Homo sapiens, UniProt P00748); type: functional;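 note: activated factor XIIa alpha cleaving a fluorogenic AMC peptide substrate; inhibitor potency from loss of enzyme activity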
T1 sequence (P00748 whole entry): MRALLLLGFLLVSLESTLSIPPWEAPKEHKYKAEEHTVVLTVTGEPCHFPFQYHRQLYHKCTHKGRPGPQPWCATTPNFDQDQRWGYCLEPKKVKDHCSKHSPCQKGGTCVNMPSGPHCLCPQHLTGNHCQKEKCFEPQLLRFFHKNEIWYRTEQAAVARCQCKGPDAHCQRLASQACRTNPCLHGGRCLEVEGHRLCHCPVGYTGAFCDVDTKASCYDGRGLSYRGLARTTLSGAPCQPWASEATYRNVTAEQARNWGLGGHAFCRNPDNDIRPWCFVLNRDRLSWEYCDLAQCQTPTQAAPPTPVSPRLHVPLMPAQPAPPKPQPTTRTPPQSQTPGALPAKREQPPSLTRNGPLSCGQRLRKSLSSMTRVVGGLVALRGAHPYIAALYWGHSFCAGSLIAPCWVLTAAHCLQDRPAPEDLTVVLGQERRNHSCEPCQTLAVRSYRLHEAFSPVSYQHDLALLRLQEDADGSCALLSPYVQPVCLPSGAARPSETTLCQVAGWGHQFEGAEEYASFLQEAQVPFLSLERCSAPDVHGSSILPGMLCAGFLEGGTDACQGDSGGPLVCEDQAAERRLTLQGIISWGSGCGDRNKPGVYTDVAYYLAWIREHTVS

cells [1] = type: functional, cell-based; details: HEK-CNG
Galanin receptor type 3 = Galanin receptor type 3 (Homo sapiens, UniProt O60755); assay: Fluorescence-based cell-based primary high throughput dose response assay to identify antagonists of the Galanin Receptor 3 (GalR3).; type: functional
Chain of Galanin receptor type 3 (O60755 whole entry): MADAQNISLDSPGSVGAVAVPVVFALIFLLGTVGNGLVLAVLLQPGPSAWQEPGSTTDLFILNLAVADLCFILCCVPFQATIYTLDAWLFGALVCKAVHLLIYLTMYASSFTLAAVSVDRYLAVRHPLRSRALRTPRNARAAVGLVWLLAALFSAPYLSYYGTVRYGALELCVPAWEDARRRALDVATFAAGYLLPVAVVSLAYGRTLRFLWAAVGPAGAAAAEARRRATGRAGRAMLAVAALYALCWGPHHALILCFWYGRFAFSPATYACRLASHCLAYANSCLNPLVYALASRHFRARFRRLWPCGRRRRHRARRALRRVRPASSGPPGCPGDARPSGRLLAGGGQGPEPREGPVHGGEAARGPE

[2] = molecular target: T2, COUP transcription factor 2 (Homo sapiens, UniProt P24468); assay: Luminescence-based cell-based high throughput dose response assay to identify inhibitors of COUP-TFII (NR2F2).; type: functional;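 note: HEK293 cells transiently cotransfected with COUP-TFII expression vector and reporter; luciferase reporter luminescence driven by COUP-TFII from the pX2-168 reporter plasmid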
T2 sequence (P24468 whole entry): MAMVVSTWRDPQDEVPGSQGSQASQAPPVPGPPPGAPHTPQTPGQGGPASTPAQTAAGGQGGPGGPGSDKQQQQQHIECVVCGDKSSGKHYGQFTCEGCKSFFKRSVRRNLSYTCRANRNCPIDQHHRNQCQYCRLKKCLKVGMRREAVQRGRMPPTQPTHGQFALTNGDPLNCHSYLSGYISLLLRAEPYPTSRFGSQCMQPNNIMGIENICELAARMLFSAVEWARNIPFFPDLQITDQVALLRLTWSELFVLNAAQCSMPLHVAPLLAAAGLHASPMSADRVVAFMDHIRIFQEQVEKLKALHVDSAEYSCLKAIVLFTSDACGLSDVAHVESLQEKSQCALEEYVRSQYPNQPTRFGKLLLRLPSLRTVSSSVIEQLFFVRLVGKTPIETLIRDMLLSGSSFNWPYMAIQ

A-375 [3] = assay: MITF: Counter assay: A375 proliferation Measured in Cell-Based System Using Plate Reader - 2084-03_Inhibitor_Dose_DryPowder_Activity. [Related pubchem assays (depositor defined):AID488944]; type: functional; details: Homo sapiens
A-375 [4] = assay: A375 melanoma cell viability reduction, dose response, counter-screen for MITF modulator project, cherry-pick samples, set 2 (AID 540335); type: functional, cell-based; details: Homo sapiens
cells [5] = type: functional, cell-based
cells [6] = type: functional, cell-based; remark: listed apart in the source
[7] = molecular target: Fructose-bisphosphate aldolase (Mycobacterium tuberculosis, UniProt P9WQA3); assay: Fluorescence-based biochemical high throughput dose response assay for inhibitors of the fructose-bisphosphate aldolase (FBA) of M. tuberculosis.; type: functional
Chain of Fructose-bisphosphate aldolase (P9WQA3 whole entry): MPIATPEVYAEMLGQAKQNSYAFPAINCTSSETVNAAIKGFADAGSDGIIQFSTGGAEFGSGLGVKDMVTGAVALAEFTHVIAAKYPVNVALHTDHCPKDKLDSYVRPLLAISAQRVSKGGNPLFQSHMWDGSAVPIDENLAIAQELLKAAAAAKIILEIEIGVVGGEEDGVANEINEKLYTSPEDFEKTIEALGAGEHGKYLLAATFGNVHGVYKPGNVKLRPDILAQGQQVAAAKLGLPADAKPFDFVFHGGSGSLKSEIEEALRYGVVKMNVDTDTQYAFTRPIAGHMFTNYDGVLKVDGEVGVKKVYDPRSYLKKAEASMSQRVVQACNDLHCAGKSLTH

[8] = molecular target: Histone-lysine N-methyltransferase NSD2 (Homo sapiens, UniProt O96028); type: biochemical
Chain of Histone-lysine N-methyltransferase NSD2 (O96028 whole entry): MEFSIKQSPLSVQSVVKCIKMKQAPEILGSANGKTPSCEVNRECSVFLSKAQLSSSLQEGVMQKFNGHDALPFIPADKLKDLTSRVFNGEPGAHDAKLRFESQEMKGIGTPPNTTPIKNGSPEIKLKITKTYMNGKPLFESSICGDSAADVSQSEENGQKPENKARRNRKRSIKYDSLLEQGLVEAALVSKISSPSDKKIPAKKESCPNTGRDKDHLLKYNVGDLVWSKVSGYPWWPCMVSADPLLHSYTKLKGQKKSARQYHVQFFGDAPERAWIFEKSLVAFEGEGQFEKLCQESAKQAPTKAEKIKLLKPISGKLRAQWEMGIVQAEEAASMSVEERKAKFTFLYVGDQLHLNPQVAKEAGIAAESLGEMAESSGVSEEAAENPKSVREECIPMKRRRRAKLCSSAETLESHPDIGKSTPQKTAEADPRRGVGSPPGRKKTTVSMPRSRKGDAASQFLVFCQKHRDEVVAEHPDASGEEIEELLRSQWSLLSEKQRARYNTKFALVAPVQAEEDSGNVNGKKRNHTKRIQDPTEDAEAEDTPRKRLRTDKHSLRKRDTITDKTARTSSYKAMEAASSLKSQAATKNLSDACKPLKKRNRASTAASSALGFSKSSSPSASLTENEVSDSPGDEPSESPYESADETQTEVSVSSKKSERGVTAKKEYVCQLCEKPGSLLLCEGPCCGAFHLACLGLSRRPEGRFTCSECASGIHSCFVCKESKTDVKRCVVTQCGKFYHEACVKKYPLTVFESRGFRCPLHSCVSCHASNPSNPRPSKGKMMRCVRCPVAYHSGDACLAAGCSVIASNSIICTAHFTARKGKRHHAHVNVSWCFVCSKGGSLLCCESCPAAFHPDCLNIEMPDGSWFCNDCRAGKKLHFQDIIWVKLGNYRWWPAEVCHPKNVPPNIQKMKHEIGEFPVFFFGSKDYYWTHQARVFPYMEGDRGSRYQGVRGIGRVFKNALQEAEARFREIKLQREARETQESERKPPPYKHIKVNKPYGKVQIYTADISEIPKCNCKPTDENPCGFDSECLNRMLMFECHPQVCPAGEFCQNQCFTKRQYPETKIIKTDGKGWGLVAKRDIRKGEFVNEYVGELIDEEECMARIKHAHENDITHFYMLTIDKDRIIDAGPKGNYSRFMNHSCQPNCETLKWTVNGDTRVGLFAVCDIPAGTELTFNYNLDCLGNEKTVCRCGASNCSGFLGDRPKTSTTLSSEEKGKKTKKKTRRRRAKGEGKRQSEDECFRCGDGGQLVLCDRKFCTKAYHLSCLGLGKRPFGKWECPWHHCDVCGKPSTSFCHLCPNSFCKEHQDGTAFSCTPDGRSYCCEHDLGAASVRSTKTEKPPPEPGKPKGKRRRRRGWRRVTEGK

[9] = HepG2 cell cytotoxicity, dose response, cytotoxicity control, plate reader, cherry-pick, antagonist series (AID 743416); type: functional, cell-based
[10] = molecular target: Beta-2 adrenergic receptor (Homo sapiens, UniProt P07550); assay: beta2AR agonists driving receptor internalization, dose response, cell-based, FAP fluorogen, flow cytometry, cherry pick 1 (AID 588763); type: functional
Chain of Beta-2 adrenergic receptor (P07550 whole entry): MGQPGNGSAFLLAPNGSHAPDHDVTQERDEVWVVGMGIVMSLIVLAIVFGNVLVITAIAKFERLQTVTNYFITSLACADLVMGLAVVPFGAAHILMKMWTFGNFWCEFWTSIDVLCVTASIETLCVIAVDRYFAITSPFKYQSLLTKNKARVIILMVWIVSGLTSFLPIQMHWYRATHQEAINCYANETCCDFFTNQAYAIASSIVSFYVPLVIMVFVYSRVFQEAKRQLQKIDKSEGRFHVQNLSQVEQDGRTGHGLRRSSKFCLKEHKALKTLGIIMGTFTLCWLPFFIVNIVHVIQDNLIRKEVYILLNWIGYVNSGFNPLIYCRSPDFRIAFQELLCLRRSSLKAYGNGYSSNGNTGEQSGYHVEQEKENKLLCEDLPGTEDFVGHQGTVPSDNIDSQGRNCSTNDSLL

[11] = LGR2 antagonists, dose response, cell-based, HEK293, CRE-luciferase reporter, cherry pick, set 2 (AID 743343); type: functional;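 note: transfected cells were stimulated with diluted bursicon conditioned medium after compound addition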
[12] = HEK293T cell cytotoxicity, dose response, cytotoxicity control for HIV Vif inhibitor project, cherry-picks (AID 652208); type: functional, cell-based
[13] = Luminescence Cell-Based Dose Retest to Confirm Inhibitors of Cancer Stem Cells. [Related pubchem assays (depositor defined):AID2717, AID2721]; type: functional; details: Homo sapiens
[14] = A549 cell cytotoxicity, dose response, cytotoxicity control, plate reader, cherry-pick, antagonist series (AID 743412); type: functional, cell-based
[15] = MC4R antagonists, dose response, counter-screen for LGR2 antagonist project, cell-based, plate reader, cherry pick (AID 743444); type: functional;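 note: transfected HEK 293 cells stimulated with alpha-MSH peptide; potency of inhibitors of the alpha-MSH evoked signal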
[16] = HEK293 cell cytotoxicity, dose response, cytotoxicity control, plate reader, cherry-picked samples (AID 743446); type: functional, cell-based

Cc1ccc(CSc2ncnc3c2cnn3-c2ccc(C)cc2)cc1
AC50 (HeLa): 48.5 µM (active)
IC50 (Coagulation factor XII): > 50 µM (inactive)

Cc1c(Cl)cccc1NC(=O)N1CCCN(c2nc(-c3ccccc3)ns2)CC1
EC50 (cells [1]): > 29.9 µM (inactive)
IC50 (Galanin receptor type 3): 1.53 µM (active)
IC50 [2]: 13.4 µM (inactive)

Cc1ccc(Nc2nnc(-c3ccccc3N)o2)cc1C
AC50 (A-375 [3]): > 35 µM (active)
AC50 (A-375 [4]): > 35 µM (active)
EC50 (cells [5]): 7.3 µM (active)
EC50 (cells [6]): > 350 µM (not active)
IC50 [7]: 1.45 µM (active)

COc1cc(/C=C2\C(=N)N3N=C(S(C)(=O)=O)SC3=NC2=O)ccc1OC(=O)c1cccs1
AC50 [8]: > 20 µM (inactive)

Cn1nnnc1Sc1ncnc2scc(-c3ccc(Cl)cc3)c12
AC50 [9]: 12.1 µM (active)
EC50 [10]: 8.38 µM (active)
AC50 [11]: 14.3 µM (active)
AC50 [12]: 11.8 µM (active)
AC50 [13]: 3.48 µM (active)
AC50 [14]: 7.88 µM (active)
AC50 [15]: 23.2 µM (active)
AC50 [16]: 13.9 µM (active)

— ChEMBL document CHEMBL1201862, “PubChem BioAssay data set” (2004)
